“And” between values parts separate entries of the source, which are not always exact repeats. Equal values may be shown once. Read-outs that look alike come from different tables or passages of the source. Blank lines part the entries; values can stand above or below the compound they belong to.
Target: T1, human SLC6A19 (Homo sapiens, UniProt Q695T7)
T1 construct: expressed in transfected cells
T1 sequence (Q695T7 1-634): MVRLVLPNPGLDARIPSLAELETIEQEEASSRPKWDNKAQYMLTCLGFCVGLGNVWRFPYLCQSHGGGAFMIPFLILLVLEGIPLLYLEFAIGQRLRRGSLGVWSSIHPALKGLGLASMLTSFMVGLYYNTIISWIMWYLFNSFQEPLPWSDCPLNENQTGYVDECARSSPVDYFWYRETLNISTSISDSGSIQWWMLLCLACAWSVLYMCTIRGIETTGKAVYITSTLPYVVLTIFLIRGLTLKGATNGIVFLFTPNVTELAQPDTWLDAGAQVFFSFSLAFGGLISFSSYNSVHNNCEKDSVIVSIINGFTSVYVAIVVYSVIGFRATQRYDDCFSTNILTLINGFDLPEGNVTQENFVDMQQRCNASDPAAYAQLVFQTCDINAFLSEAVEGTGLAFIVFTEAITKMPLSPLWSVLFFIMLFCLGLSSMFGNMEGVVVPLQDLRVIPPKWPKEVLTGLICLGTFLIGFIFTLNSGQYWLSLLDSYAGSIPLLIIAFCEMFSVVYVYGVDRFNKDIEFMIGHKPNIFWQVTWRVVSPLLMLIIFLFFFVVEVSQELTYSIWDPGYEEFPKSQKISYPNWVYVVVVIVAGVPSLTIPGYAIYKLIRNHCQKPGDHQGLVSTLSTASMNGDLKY
T1 sequence (Q9HBJ8 15-222 partner): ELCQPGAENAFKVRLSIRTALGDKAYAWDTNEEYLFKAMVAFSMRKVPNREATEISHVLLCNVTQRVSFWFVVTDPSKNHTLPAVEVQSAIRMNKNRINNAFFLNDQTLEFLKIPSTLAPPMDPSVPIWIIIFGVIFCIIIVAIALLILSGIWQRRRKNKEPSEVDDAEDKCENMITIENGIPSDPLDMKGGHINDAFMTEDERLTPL
Assay: Isoleucine transport assay, Flp-In T-REx 293 cells coexpressing human SLC6A19 and TMEM27
Type: cell-based
Settings: for isoleucine transport, Human (Fig 1f curve point) / isoleucine transport, Human (Fig 1c curve point): technical replicates
Protocol: Flp-In T-REx 293 cells (Thermo Fisher Scientific) were engineered to coexpress C-terminally V5-tagged human or mouse SLC6A19 under the control of a tetracycline-inducible promoter and human or mouse myc-DDK-tagged TMEM27 under the control of a constitutively active promoter. Cells were maintained in DMEM/F12 medium supplemented with 10% FBS, 100 units/mL penicillin, 100 μg/mL streptomycin, 200 μg/mL hygromycin, 10 μg/mL blasticidin, and 300 μg/mL geneticin (all from Thermo Fisher Scientific) at 37°C and 5% CO2.
Flp-In T-REx 293 cells stably coexpressing human or mouse SLC6A19 and TMEM27 were plated in 384-well plates in the presence of 1 μg/mL tetracyclin (Sigma-Aldrich) to induce the expression of SLC6A19. After 24 hours, cells were washed with live cell imaging solution (LCIS, Thermo Fisher Scientific) before JN-170 or JNT-517 were added to cells in 10-point concentration response curves in 0.5% DMSO in Krebs buffer (140 mM NaCl, 4.7 mM KCl, 2.5 mM CaCl2, 1.2 mM MgCl2, 11 mM HEPES, 10 mM glucose, pH 7.4). Cells were incubated with compounds for 1 hour at room temperature before 1 mM ^13C6,^15N1-labeled L-isoleucine (Cambridge Isotope Laboratories) was added as a transport substrate. After 20 minutes incubation at room temperature, cells were washed and lysed in H2O with 15 μM internal standard D-Leucine-D10 (CDN Isotopes) for 1–2 hours. A standard curve of ^13C6,^15N1-L-isoleucine was added to each plate following cell lysis. Plates were centrifuged at 3,700g to remove cell debris, and supernatant was diluted in 2 steps to a final 1:10 dilution in acetonitrile/0.1% formic acid. Sample desalting was performed on a high throughput RapidFire-365 (Agilent) using a hydrophilic interaction liquid chromatography (HILIC) column. A quantitative time-of-flight (Q-ToF) mass spectrometer (Agilent) was used to detect analytes. Agilent MassHunter quantitative analysis for time of flight was used as the integration software for measuring area under the peak for both ^13C6,^15N1-L-isoleucine and D-Leucine-D10 internal standard.
IC50 values for transport inhibition in cells overexpressing SLC6A19 and TMEM27 were calculated using a 4-parameter logistic regression in Collaborative Drug Discovery (CDD). Reported IC50 values are geometric means of 4–6 independent experiments. For postmortem intestinal transport assays, single outliers of quadruplicate replicates were excluded from the calculation if a signal value’s distance to the mean exceeded 35% of the signal average. The IC50 values of individual experiments were calculated with a 3- or 4-parameter logistic regression using GraphPad Prism 9. The reported IC50 value represents the geometric mean of n = 5 experiments from 3 individual donors. Statistical comparison of urinary Phe excretion in Pah^enu2 mice treated with vehicle or JN-170 was conducted using 1-way analysis of variance (ANOVA) with Tukey’s post hoc comparison. Statistical analysis of baseline-adjusted plasma Phe in mice treated with vehicle or JN-170 was determined by 2-way ANOVA with Dunnett’s post hoc comparison. All statistical analyses were performed using GraphPad Prism 9. For clinical studies, group sizes were not determined based on statistical power calculations. Statistical significance of pharmacodynamic results was not assessed. Values are reported as mean (urinary Phe excretion, T1/2, Cl/F), geometric mean (Cmax/D, AUC0-inf/D), or median (Tmax).

fold less potent against human SLC6A19 than mouse SLC6A19: > 10 fold
isoleucine transport, Human (Fig 1f curve point) (0.000722 uM): 84.3 and 86.8
isoleucine transport, Human (Fig 1f curve point) (0.00219 uM): 72.6 and 89.2
isoleucine transport, Human (Fig 1f curve point) (0.00438 uM): 81.4 and 98.3
isoleucine transport, Human (Fig 1f curve point) (0.015313 uM): 84.4 and 88.8
isoleucine transport, Human (Fig 1f curve point) (0.048125 uM): 85.9 and 72.3
isoleucine transport, Human (Fig 1f curve point) (0.144375 uM): 64.5 and 70.3
isoleucine transport, Human (Fig 1f curve point) (0.4375 uM): 40 and 54.4
isoleucine transport, Human (Fig 1f curve point) (1.3125 uM): 41.1 and 23.8
isoleucine transport, Human (Fig 1f curve point) (3.9375 uM): 21 and 4.32
isoleucine transport, Human (Fig 1f curve point) (11.8125 uM): 2.26 and -9.71
IC50 (geometric mean n = 6, 95% CI 0.68–2.82 μM, read-out: IC50 against human SLC6A19, isoleucine transport assay): 1250 nM
SMILES: N#Cc1ccc(-c2noc([C@]3(C(F)(F)F)CCN(C(=O)NCCC4(N)CC4)C3)n2)cc1 [JN-170]

SMILES: NC(=O)N1CCC[C@@H](N(C(=O)NCc2ccc(OC(F)(F)F)cc2F)C2CC2)C1 [JNT-517]
isoleucine transport, Human (Fig 1c curve point) (0.000722 uM): 89.9 and 94.8
isoleucine transport, Human (Fig 1c curve point) (0.00219 uM): 91.3 and 95.5
isoleucine transport, Human (Fig 1c curve point) (0.00438 uM): 79.4 and 85.4
isoleucine transport, Human (Fig 1c curve point) (0.0153125 uM): 71.2 and 80.7
isoleucine transport, Human (Fig 1c curve point) (0.048125 uM): 33.9 and 45.4
isoleucine transport, Human (Fig 1c curve point) (0.144375 uM): 25.9 and 24
isoleucine transport, Human (Fig 1c curve point) (0.4375 uM): 12.2 and 4.05
isoleucine transport, Human (Fig 1c curve point) (1.3125 uM): -3.01 and -3.67
isoleucine transport, Human (Fig 1c curve point) (3.9375 uM): -3.2 and -3.39
isoleucine transport, Human (Fig 1c curve point) (11.8125 uM): -9.74 and -5.08
IC50 (geometric mean n = 4, 95% CI 38–57 nM, read-out: potency (IC50) against human SLC6A19, isoleucine transport assay): 47 nM

Reference: publication PMC11601558, “SLC6A19 inhibition facilitates urinary neutral amino acid excretion and lowers plasma phenylalanine” (JCI Insight, 2024)
